Assay results published in BindingDB's records for doi:10.7270/Q2D798VP (Broad Institute, 2009).

Molecular target: T1, Zinc finger protein mex-5 (Caenorhabditis elegans, UniProt Q9XUB2)
T1 sequence (Q9XUB2 whole entry): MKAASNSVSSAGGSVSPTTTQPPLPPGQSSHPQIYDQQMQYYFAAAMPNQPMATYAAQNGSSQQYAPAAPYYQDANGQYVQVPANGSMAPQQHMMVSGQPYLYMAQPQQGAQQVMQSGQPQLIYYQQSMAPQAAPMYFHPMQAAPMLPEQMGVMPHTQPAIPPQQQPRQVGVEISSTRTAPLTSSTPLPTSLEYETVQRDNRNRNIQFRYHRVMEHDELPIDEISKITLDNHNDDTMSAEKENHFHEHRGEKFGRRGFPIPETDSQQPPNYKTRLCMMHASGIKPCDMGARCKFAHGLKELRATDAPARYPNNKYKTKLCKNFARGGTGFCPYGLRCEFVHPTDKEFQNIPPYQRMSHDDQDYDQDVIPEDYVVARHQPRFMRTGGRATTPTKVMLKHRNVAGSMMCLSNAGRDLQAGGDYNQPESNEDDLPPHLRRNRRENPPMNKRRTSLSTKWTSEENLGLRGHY
Experiment: MEX-5/TCR-2 RNA interaction inhibitors, dose response, biochemical, C. elegans, fluorescence polarization (AID 1960)

Row | Compound | EC50
1 | O=C(N[N-][CH+]c1cc([N+](=O)[O-])ccc1N1CCCC1)c1ccccn1 [MLS000684285] | 70.5 µM
2 | COc1ccc(C2CC(=O)C(=CNCCCO)C(=O)C2)cc1 (centres undefined) [2-[(3-hydroxypropylamino)methylidene]-5-(4-methoxyphenyl)cyclohexane-1,3-dione] | 37.9 µM
3 | CC1(C)CC(=O)C2=C(C1)OC(=N)C(C#N)C21C(=O)N(CN2CCOCC2)c2ccccc21 (centres undefined) [2-amino-2',5-diketo-7,7-dimethyl-1'-(morpholinomethyl)spiro[6,8-dihydrochromene-4,3'-indoline]-3-carbonitrile] | > 300 µM
4 | COc1ccc(C2C(C(C)=O)=C(C)N=c3sc(=Cc4cc(C)n(C)c4C)c(=O)n32)c(OC)c1 (centres undefined) | 21 µM
5 | COc1cc(C2C3=C(CCCC3=O)OC(=N)C2C#N)cc(OC)c1OC(=O)N1CCOCC1 (centres undefined) [4-(2-amino-3-cyano-5-oxo-5,6,7,8-tetrahydro-4H-chromen-4-yl)-2,6-dimethoxyphenyl morpholine-4-carboxylate] | > 300 µM
6 | Cn1c2cc(=N)ccc-2c2ccc(N)cc2c1-c1ccccc1 [(3-amino-5-methyl-6-phenyl-phenanthridin-5-ium-8-yl)amine;bromide] | 5.36 µM
7 | CC(=O)N=c1c(C#N)cc2c(=O)n3cccc(C)c3nc2n1CCCOC(C)C [MLS000332846] | 229 µM
8 | COc1ccc(OC)c(N2C(=O)C(=Cc3ccco3)C(=O)NC2=S)c1 [MLS001197216] | 10.8 µM
9 | CN(C)[C@@H]1C(=O)C(C(N)=O)C(=O)[C@@]2(O)C(=O)C3C(=O)c4c(O)cccc4[C@@](C)(O)C3C(O)C12 (some centres undefined) [SMR000875333] | 20.5 µM
10 | CCOc1cccc(C2C(C(=O)c3ccc(C)o3)C(=O)C(=O)N2c2nccs2)c1 (centres undefined) [2-(3-ethoxyphenyl)-3-(5-methylfuran-2-yl)carbonyl-4-oxidanyl-1-(1,3-thiazol-2-yl)-2H-pyrrol-5-one] | 1.27 µM
11 | COc1ccc(C2C3=C(CC(C)(C)CC3=O)OC(=N)C2C#N)cc1 (centres undefined) [2-amino-4-(4-methoxyphenyl)-7,7-dimethyl-5-oxo-6,8-dihydro-4H-1-benzopyran-3-carbonitrile] | > 300 µM
12 | CC1(C)CC(=O)C2=C(C1)OC(=N)C(C#N)[C@@]21C(=O)N(CC(N)=O)c2ccccc21 (stereo partly drawn) [2-[(4R)-2-amino-3-cyano-2',5-diketo-7,7-dimethyl-spiro[6,8-dihydrochromene-4,3'-indoline]-1'-yl]acetamide] | > 300 µM
13 | C=CCN1C(=O)NC(=O)C(=CNc2ccc(N(CC)CC)cc2)C1=O [(5E)-1-allyl-5-[[4-(diethylamino)anilino]methylene]barbituric acid] | 113 µM
14 | O=C1C([N+](=O)[O-])=CC(Cl)=CC1/C=N/NC(=O)C(O)(c1ccccc1)c1ccccc1 (centres undefined) [N''''-[(E)-(3-chloro-5-nitro-6-oxocyclohexa-2,4-dien-1-ylidene)methyl]-2-hydroxy-2,2-diphenylacetohydrazide] | 40.2 µM
15 | COc1cc(C2C3=C(CCCC3=O)OC(=N)C2C#N)cc2c1OCO2 (centres undefined) | > 300 µM
16 | CCN(CC)CCN1C(=O)C(=O)C(C(=O)c2cc3cccc(OC)c3o2)C1c1ccc(F)cc1 (centres undefined) [1-(2-Diethylamino-ethyl)-5-(4-fluoro-phenyl)-3-hydroxy-4-(7-methoxy-benzofuran-2-carbonyl)-1,5-dihydr o-pyrrol-2-one] | > 300 µM
17 | CSc1nnc(N2C(=O)C(=O)C(C(=O)c3ccco3)C2c2ccc(F)cc2)s1 (centres undefined) [2-(4-fluorophenyl)-3-(furan-2-carbonyl)-4-hydroxy-1-(5-methylsulfanyl-1,3,4-thiadiazol-2-yl)-2H-pyrrol-5-one] | 82.8 µM
18 | O=C(NN=Cc1c(O)ccc2ccccc12)c1cncc(Br)c1 [5-bromo-N'-[(Z)-(2-oxo-1-naphthalenylidene)methyl]-3-pyridinecarbohydrazide] | 256 µM
19 | Cc1nnc(SC(=Cc2ccc(OCc3ccc(C(=O)O)cc3)cc2)C(=O)O)[nH]1 [4-[[4-[(E)-2-[(5-methyl-1H-1,2,4-triazol-3-yl)sulfanyl]-3-oxidanyl-3-oxidanylidene-prop-1-enyl]phenoxy]methyl]benzoic acid] | 3.38 µM
20 | CCN(CC)CCNC=C1C(=O)NC(=O)N(CCc2ccccc2)C1=O [(5E)-5-[[2-(diethylamino)ethylamino]methylene]-1-phenethyl-barbituric acid] | > 300 µM
21 | Cc1cc(N2C(=O)C(=O)C(C(=O)c3cc4ccccc4o3)C2c2ccc([N+](=O)[O-])cc2)no1 (centres undefined) [3-(1-benzofuran-2-carbonyl)-4-hydroxy-1-(5-methyl-1,2-oxazol-3-yl)-2-(4-nitrophenyl)-2H-pyrrol-5-one] | 45.4 µM
22 | Cc1ccc(C(=O)C2C(=O)C(=O)N(Cc3ccco3)C2c2cccc(Br)c2)o1 (centres undefined) [2-(3-bromophenyl)-1-(2-furanylmethyl)-4-hydroxy-3-[(5-methyl-2-furanyl)-oxomethyl]-2H-pyrrol-5-one] | 35.6 µM
23 | CCOc1ccc(N2C(=O)NC(=O)C(=Cc3c[nH]c4ccccc34)C2=O)cc1 [(5E)-1-(4-ethoxyphenyl)-5-(1H-indol-3-ylmethylidene)-1,3-diazinane-2,4,6-trione] | 47 µM
24 | CCCOc1cccc(C2C(C(=O)c3ccco3)C(=O)C(=O)N2c2nnc(C)s2)c1 (centres undefined) [3-(furan-2-carbonyl)-4-hydroxy-1-(5-methyl-1,3,4-thiadiazol-2-yl)-2-(3-propoxyphenyl)-2H-pyrrol-5-one] | 82.7 µM
25 | CN1CCC2(CC1)C(C#N)C(=N)NC(=S)C2C#N (centres undefined) [SMR000211480] | 8.53 µM

Row | Compound | EC50
26 | C=c1cc(O)c(CN(C)C)c2oc(=Cc3ccco3)c(O)c12 [(2Z)-7-[(dimethylamino)methyl]-2-(furan-2-ylmethylidene)-6-hydroxy-4-methyl-1-benzofuran-3-one] | 39.8 µM
27 | COc1ccc(C(=O)CC=Nc2ccc([N+](=O)[O-])cc2C)c(OC)c1 [(E)-1-(2,4-dimethoxyphenyl)-3-(2-methyl-4-nitro-anilino)prop-2-en-1-one] | > 300 µM
28 | COc1ccccc1N1C(=O)C(=Nc2ccccc2O)C(Cl)C1=O (centres undefined) [3-chloranyl-4-[(2-hydroxyphenyl)amino]-1-(2-methoxyphenyl)pyrrole-2,5-dione] | 8.19 µM
29 | CS(=O)(=O)Nc1nc2n(n1)C(c1ccccc1)CC(c1ccc(Br)cc1)=N2 (centres undefined) | 6.39 µM
30 | CC1(C)CC(=O)C2=C(C1)OC(=N)C(C#N)C2c1ccc2c(c1)OCO2 (centres undefined) [SMR000514966] | > 300 µM
31 | COc1ccccc1-n1c(O)c2n(-c3ccc(C)cc3)[nH]c(C(=O)c3ccccc3)c-2c1=O | 14.3 µM
32 | [H]/N=C1/OC23CCCCC2C(C#N)(C#N)C1(C#N)C(c1ccc(OC)cc1)O3 (centres undefined) [MLS000554241] | 11.2 µM
33 | CC1CCC2=C(C#N)C(=N)C(C#N)(C#N)C(c3cccs3)C2C1 (centres undefined) [2-amino-6-methyl-4-(2-thienyl)-4a,5,6,7-tetrahydro-4H-naphthalene-1,3,3-tricarbonitrile] | 14.9 µM
34 | NC(=NNC=c1ccc(=C2C=CC(=O)C(C(=O)O)=C2)o1)N[N+](=O)[O-] [5-(5-{2-[amino(nitroimino)methyl]carbonohydrazonoyl}-2-furyl)-2-hydroxybenzoic acid] | 26.1 µM
35 | CCCCCCN1C(=O)C(=CNc2ccccc2N2CCOCC2)C(=O)NC1=S [MLS000333666] | > 300 µM
36 | O=C1N=c2ccccc2=C1NNc1ccc(F)cc1 | > 300 µM
37 | O=C(/C=C/c1ccco1)NCC(=O)NNC1=c2ccccc2=NC1=O [MLS001075666] | 5.49 µM
38 | CN1C(=O)/C(=C/c2ccc(-c3ccccc3[N+](=O)[O-])o2)S/C1=N/c1ccc(Cl)c(C(=O)O)c1 [2-Chloro-5-[3-methyl-5-[1-[5-(2-nitro-phenyl)-furan-2-yl]-meth-(Z)-ylidene]-4-oxo-thiazolidin-(2Z)-ylideneamino]-benzoic acid] | 22.6 µM
39 | CCCN1CCC2=C(C#N)C(=N)C(C#N)(C#N)C(c3cc(OC)ccc3OC)C2C1 (centres undefined) [6-Amino-8-(2,5-dimethoxy-phenyl)-2-propyl-2,3,8,8a-tetrahydro-1H-isoquinoline-5,7,7-tricarbonitrile] | 25.5 µM
40 | O=C(Cc1nc2cc(Cl)ccc2oc1=O)c1ccco1 [(3Z)-6-chloranyl-3-[2-(furan-2-yl)-2-oxidanylidene-ethylidene]-4H-1,4-benzoxazin-2-one] | > 300 µM
41 | O=C1NC(=O)N(Cc2ccccc2Cl)C(=O)C1=CNc1ccc(F)cc1 [(5E)-1-(2-chlorobenzyl)-5-[(4-fluoroanilino)methylene]barbituric acid] | > 300 µM
42 | Cc1cc(=O)n(-c2ccc(C(=O)O)c(N)c2)[nH]1 [MLS000690508] | 38.3 µM
43 | CCOC(=O)C1=C(C)OC(=N)C(C#N)C1c1ccc(O)c(OC)c1 (centres undefined) [6-amino-5-cyano-4-(4-hydroxy-3-methoxyphenyl)-2-methyl-4H-pyran-3-carboxylic acid ethyl ester] | > 300 µM
44 | Cc1ccc(CN=Nc2ncnc3nc[nH]c23)cc1 [MLS000419179] | > 300 µM
45 | Cc1ccc2oc(=O)c(CC(=O)c3cccs3)nc2c1 [(3Z)-3-[2-keto-2-(2-thienyl)ethylidene]-6-methyl-4H-1,4-benzoxazin-2-one] | 6.82 µM
46 | Cc1ccc(C(=O)Cc2nc3cc(C)ccc3oc2=O)cc1 [(3Z)-3-[2-keto-2-(p-tolyl)ethylidene]-6-methyl-4H-1,4-benzoxazin-2-one] | 1.64 µM
47 | Cn1c(=O)[nH]c(=O)c2c1nc(N=NC=C(Br)Cc1ccccc1)n2CCO [SMR000436442] | 55.5 µM
48 | Cc1ccc(NNC2=Nc3ccccc3C2=O)cc1 [2-[(4-methylphenyl)hydrazo]-3-indolone] | 25.7 µM
49 | O=[N+]([O-])c1ccc(/N=N/c2ncc[nH]2)cc1 [N-(imidazol-2-ylideneamino)-4-nitroaniline] | 20.7 µM
